In ChEMBL document CHEMBL1201862, “PubChem BioAssay data set” (2004):
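Results reflect a 48-hour exposure of cells in 96-well plates to compound at five concentrations. GI50: concentration for 50% inhibition of growth.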 Activity calls are given as the source filed them. No stated cut-off is given here; in the data, active = GI50 up to about 1.1 µM and inactive = higher.

Columns and labels:
Experiment in all cases: growth of human tumour cells (NCI), 48 h
UACC-257 = system: UACC-257
NCI-H23 = system: NCI-H23
HT-29 = system: HT-29
PC-3 = system: PC-3
MCF7 = system: MCF7
NCI-H522 = system: NCI-H522
OVCAR-4 = system: OVCAR-4
UO-31 = system: UO-31
T47D = system: T47D
SF-295 = system: SF-295
SK-MEL-2 = system: SK-MEL-2
MDA-N = system: MDA-N
SNB-19 = system: SNB-19
SNB-75 = system: SNB-75
HCT-116 = system: HCT-116
OVCAR-8 = system: OVCAR-8
SK-MEL-28 = system: SK-MEL-28
CCRF-CEM = system: CCRF-CEM
SF-268 = system: SF-268
OVCAR-3 = system: OVCAR-3

| Structure (SMILES) | GI50 (UACC-257) | GI50 (NCI-H23) | GI50 (HT-29) | GI50 (PC-3) | GI50 (MCF7) | GI50 (NCI-H522) | GI50 (OVCAR-4) | GI50 (UO-31) | GI50 (T47D) | GI50 (SF-295) | GI50 (SK-MEL-2) | GI50 (MDA-N) | GI50 (SNB-19) | GI50 (SNB-75) | GI50 (HCT-116) | GI50 (OVCAR-8) | GI50 (SK-MEL-28) | GI50 (CCRF-CEM) | GI50 (SF-268) | GI50 (OVCAR-3) |
| --- | --- | --- | --- | --- | --- | --- | --- | --- | --- | --- | --- | --- | --- | --- | --- | --- | --- | --- | --- | --- |
| Cc1ccc(S(=O)(=O)NC2C(=O)c3ccccc3C(=O)C2n2ccnc2)cc1 (stereo not given) | > 100 µM (inactive) | 25.4 µM (inactive) | > 100 µM (inactive) | > 100 µM (inactive) | > 100 µM (inactive) | < 0.01 µM (active) | 30.9 µM (inactive) | > 100 µM (inactive) | 17.5 µM (inactive) | > 100 µM (inactive) | > 100 µM (inactive) | 15.4 µM (inactive) | > 100 µM (inactive) | > 100 µM (inactive) | 20.4 µM (inactive) | > 100 µM (inactive) | > 100 µM (inactive) | 20 µM (inactive) | > 100 µM (inactive) | 42.5 µM (inactive) |
| COc1ccc(/C(Nc2ccccc2)=C(\CCl)c2ccccc2)cc1OC | 29.2 µM (inactive) | 45.9 µM (inactive) | 34.9 µM (inactive) | 39.4 µM (inactive) | 26.4 µM (inactive) | 16.7 µM (inactive) | 35.7 µM (inactive) | 37.2 µM (inactive) | 35.5 µM (inactive) | 49.2 µM (inactive) | 24.1 µM (inactive) | 35.7 µM (inactive) | > 100 µM (inactive) | 63.2 µM (inactive) | 17.7 µM (inactive) | 35.2 µM (inactive) | 82 µM (inactive) | 17.3 µM (inactive) | 97.1 µM (inactive) | 35.7 µM (inactive) |
| COc1ccc(-n2c(Cn3nnc(-c4cccnc4)n3)nn(C3OC(COC(=O)c4ccccc4)C(OC(=O)c4ccccc4)C3OC(=O)c3ccccc3)c2=S)cc1 (stereo not given) | > 100 µM (inactive) | > 100 µM (inactive) | 50.9 µM (inactive) | > 100 µM (inactive) | > 100 µM (inactive) | > 100 µM (inactive) | > 100 µM (inactive) | > 100 µM (inactive) | > 100 µM (inactive) | > 100 µM (inactive) | > 100 µM (inactive) | > 100 µM (inactive) | 74 µM (inactive) | > 100 µM (inactive) | > 100 µM (inactive) | > 100 µM (inactive) | > 100 µM (inactive) | > 100 µM (inactive) | > 100 µM (inactive) | > 100 µM (inactive) |
| O=c1[nH]c2cc3cccnc3c(Cl)c2nc1C(F)(F)F | 27.1 µM (inactive) | 25 µM (inactive) | 51.3 µM (inactive) | 52 µM (inactive) | 28.3 µM (inactive) | 28.6 µM (inactive) | 21.8 µM (inactive) | 27.7 µM (inactive) | 33.6 µM (inactive) | 41 µM (inactive) | 48.2 µM (inactive) | 37.2 µM (inactive) | 54.7 µM (inactive) | 27.5 µM (inactive) | 43.5 µM (inactive) | 28.8 µM (inactive) | 62.8 µM (inactive) | 28.1 µM (inactive) | 60.7 µM (inactive) | 34.4 µM (inactive) |
| CCC(C)N1CN(c2ccccc2)C2(CCN(CCCC3(c4ccc(F)cc4)OCCO3)CC2)C1=O (stereo not given) | 1.98 µM (inactive) | 3.34 µM (inactive) | 2.87 µM (inactive) | 6.05 µM (inactive) | 3.3 µM (inactive) | 5.11 µM (inactive) | 22.6 µM (inactive) | 5.09 µM (inactive) | 8.28 µM (inactive) | 5.57 µM (inactive) | 11.9 µM (inactive) | 7.14 µM (inactive) | 12.4 µM (inactive) | 6.05 µM (inactive) | 11.9 µM (inactive) | 7.64 µM (inactive) | 17.6 µM (inactive) | 3.6 µM (inactive) | 17.7 µM (inactive) | 14.7 µM (inactive) |
